# Test results as given in ChEMBL document CHEMBL5465560, “Selectivity Literature for EUbOPEN Chemogenomic Library” (2024).
# Columns and labels:
# [1] = molecular target: T1, Serine/threonine-protein kinase NLK (Homo sapiens) (UniProt Q9UBE8); experiment: Selectivity interaction (KinomeScan (DiscoverX)) EUB0001049a NLK; settings: at 1 µM
# T1 sequence (whole entry): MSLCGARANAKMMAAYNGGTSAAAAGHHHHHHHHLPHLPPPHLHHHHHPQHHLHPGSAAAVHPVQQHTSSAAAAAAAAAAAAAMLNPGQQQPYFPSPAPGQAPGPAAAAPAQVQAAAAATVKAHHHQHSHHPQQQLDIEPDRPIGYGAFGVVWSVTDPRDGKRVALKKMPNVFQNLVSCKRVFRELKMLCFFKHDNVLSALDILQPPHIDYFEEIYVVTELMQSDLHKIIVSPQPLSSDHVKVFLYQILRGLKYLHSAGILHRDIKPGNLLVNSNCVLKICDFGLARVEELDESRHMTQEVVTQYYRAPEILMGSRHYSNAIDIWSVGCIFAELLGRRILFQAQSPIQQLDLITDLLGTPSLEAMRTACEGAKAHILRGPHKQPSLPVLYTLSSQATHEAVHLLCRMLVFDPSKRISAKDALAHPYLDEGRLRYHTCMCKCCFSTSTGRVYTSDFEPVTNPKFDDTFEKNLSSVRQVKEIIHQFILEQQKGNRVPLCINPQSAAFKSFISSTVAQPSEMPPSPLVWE
# [2] = molecular target: Ribosomal protein S6 kinase alpha-6 (Homo sapiens, UniProt Q9UK32); experiment: Selectivity interaction (KinomeScan (DiscoverX)) EUB0000655a RPS6KA6; settings: at 10 µM
# Chain of Ribosomal protein S6 kinase alpha-6 (Q9UK32 whole entry): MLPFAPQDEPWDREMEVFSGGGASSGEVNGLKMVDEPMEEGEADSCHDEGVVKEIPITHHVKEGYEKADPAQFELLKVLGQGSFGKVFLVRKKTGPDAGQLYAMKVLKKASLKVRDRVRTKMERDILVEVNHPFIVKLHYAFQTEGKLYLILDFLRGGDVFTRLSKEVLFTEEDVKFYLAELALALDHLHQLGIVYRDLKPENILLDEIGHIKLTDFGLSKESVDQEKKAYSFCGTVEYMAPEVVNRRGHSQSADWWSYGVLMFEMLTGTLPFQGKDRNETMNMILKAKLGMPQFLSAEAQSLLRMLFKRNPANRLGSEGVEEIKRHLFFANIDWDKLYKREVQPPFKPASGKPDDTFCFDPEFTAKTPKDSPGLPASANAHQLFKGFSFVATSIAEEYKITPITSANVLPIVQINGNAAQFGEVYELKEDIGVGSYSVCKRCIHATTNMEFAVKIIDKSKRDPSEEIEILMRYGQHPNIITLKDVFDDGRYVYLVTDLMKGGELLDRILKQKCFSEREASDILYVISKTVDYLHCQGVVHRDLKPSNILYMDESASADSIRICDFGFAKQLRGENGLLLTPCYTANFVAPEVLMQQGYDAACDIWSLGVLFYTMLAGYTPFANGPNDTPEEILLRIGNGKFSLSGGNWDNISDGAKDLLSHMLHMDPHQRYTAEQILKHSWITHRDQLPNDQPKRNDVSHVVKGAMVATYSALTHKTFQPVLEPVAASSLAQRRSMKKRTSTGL
# [3] = molecular target: T2, Serine/threonine-protein kinase BRSK1 (Homo sapiens) (UniProt Q8TDC3); experiment: Selectivity interaction (KinomeScan (DiscoverX)) EUB0000229b BRSK1; settings: at 10 µM
# T2 sequence (whole entry): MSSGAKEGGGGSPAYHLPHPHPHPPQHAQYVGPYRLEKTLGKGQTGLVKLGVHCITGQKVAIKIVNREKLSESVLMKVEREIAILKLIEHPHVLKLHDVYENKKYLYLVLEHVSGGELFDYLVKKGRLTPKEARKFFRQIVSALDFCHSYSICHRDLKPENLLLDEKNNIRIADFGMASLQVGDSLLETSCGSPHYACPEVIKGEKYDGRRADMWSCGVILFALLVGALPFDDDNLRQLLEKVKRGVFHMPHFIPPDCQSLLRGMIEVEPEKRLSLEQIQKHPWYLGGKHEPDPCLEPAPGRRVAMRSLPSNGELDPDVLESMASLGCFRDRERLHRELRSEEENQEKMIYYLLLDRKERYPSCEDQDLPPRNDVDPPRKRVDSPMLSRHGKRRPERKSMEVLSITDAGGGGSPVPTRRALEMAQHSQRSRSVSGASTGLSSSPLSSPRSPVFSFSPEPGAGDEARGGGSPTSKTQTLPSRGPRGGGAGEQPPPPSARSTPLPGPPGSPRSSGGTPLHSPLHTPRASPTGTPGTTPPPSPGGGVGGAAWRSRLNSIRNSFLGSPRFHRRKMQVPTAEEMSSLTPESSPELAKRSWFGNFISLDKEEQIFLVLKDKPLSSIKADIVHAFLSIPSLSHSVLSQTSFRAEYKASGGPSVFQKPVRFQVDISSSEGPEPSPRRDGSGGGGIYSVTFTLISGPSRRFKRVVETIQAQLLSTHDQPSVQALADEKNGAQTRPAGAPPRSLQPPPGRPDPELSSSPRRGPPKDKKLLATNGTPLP
# [4] = molecular target: T3, Dual specificity mitogen-activated protein kinase kinase 4 (Homo sapiens) (UniProt P45985); experiment: Selectivity interaction (KinomeScan (DiscoverX)) EUB0000092b MAP2K4; settings: at 10 µM
# T3 sequence (whole entry): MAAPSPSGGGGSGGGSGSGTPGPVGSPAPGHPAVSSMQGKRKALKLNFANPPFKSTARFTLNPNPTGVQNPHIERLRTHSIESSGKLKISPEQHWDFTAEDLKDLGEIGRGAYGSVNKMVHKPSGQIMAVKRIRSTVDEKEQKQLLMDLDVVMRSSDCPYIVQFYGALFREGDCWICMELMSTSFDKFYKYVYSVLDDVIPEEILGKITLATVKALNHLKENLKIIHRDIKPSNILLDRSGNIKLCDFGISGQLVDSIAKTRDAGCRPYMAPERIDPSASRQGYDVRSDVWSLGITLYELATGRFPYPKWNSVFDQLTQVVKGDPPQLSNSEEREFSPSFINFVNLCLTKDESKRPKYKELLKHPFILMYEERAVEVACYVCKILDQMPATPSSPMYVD
# [5] = molecular target: T4, Ephrin type-A receptor 8 (Homo sapiens) (UniProt P29322); experiment: Selectivity interaction (KinomeScan (DiscoverX)) EUB0001619a EPHA8; settings: at 1 µM
# T4 sequence (whole entry): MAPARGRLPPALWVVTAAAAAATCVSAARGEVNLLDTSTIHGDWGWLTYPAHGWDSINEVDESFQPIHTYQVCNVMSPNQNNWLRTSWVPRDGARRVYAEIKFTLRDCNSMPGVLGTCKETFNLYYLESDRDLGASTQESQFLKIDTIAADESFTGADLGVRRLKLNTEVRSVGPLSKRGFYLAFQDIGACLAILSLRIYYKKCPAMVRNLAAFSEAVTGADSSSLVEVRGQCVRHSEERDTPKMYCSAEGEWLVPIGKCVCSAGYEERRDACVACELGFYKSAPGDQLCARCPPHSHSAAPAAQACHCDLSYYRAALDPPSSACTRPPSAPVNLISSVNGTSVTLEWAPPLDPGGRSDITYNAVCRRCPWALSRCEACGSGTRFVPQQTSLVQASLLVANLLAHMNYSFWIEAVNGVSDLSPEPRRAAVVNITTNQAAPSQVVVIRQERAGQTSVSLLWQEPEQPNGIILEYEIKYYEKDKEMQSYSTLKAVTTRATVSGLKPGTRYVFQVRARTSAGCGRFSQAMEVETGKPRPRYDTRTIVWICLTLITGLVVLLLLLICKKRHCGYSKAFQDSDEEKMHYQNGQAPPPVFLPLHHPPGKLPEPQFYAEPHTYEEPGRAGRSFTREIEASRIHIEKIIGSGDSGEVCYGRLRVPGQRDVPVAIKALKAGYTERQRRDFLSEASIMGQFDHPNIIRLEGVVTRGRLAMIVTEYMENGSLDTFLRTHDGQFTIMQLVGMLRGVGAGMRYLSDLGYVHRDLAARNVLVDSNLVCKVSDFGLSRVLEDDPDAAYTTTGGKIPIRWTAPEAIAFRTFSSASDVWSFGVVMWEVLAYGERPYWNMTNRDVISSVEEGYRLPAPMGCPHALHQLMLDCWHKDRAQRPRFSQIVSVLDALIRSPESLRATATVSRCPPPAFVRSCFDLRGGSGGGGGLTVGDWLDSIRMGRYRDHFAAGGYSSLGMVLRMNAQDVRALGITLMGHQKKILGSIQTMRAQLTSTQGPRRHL
# [6] = molecular target: Serine/threonine-protein kinase 38-like (Homo sapiens) (UniProt Q9Y2H1); experiment: Selectivity interaction (ActivX KiNativ screen (ex vivo kinase selectivity in human PBMCs)) EUB0001619a STK38L; type: cell-based; settings: PBMC, at 1 µM
# Chain of Serine/threonine-protein kinase 38-like (Homo sapiens) (Q9Y2H1 2-464 limits assumed): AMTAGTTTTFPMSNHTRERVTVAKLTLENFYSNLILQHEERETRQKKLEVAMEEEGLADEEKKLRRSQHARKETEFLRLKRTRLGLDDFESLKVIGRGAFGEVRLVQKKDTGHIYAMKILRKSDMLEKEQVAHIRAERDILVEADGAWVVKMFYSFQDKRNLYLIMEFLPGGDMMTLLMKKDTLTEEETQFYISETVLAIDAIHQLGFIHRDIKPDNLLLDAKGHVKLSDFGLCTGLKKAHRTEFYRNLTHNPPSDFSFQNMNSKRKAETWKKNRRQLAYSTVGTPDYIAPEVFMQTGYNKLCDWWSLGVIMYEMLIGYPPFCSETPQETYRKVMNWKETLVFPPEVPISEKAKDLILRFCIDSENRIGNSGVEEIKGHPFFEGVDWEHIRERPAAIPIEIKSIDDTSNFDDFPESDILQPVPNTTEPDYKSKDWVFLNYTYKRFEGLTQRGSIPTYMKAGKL
smiles,measurement,setting,value
COc1cc(Nc2nc(C)cc(-c3cnn4nc(OC)ccc34)n2)cc(C(F)(F)F)c1,% of control,[1],100%
CN(C)CCOc1ccc(-c2nc(-c3ccncc3)c(-c3ccc4c(c3)CC/C4=N\O)[nH]2)cc1,% of control,[2],82%
COc1cc(N(C)c2ccnc3ccc(C(F)(F)F)cc23)cc(OC)c1OC,% binding,[3],86%
CCC(=O)N1CCN(c2ccc(-n3c(=O)ccc4cnc5ccc(-c6cnc7ccccc7c6)cc5c43)cc2C(F)(F)F)CC1,% of control,[4],30%
N#Cc1cccc(-c2c[nH]c3ncnc(N4CCOCC4)c23)c1,% of control,[5],100%
same,% of inhibition,[6],3%
